pIC50: −log10 of the molar value.
Test system: SARS-CoV-2
Experiment: microbe, parasite or virus in culture
Conditions: Severe acute respiratory syndrome coronavirus 2, Vero C1008, 48 h; for IC50: read-out: pIC50 (converted)

`CC[C@H]1OC(=O)C[C@@H](O)[C@H](C)[C@@H](O[C@@H]2O[C@H](C)[C@@H](O[C@H]3C[C@@](C)(O)[C@@H](O)[C@H](C)O3)[C@H](N(C)C)[C@H]2O)[C@@H](CC=O)C[C@@H](C)C(=O)/C=C\C(C)=C/[C@@H]1CO[C@@H]1O[C@H](C)[C@@H](O)[C@@H](OC)[C@H]1OC` was tested, and the pIC50 was < 4.70 and the IC50 was > 20 µM.
With `COc1cc2nccc(Oc3ccc(NC(=O)C4(C(=O)Nc5ccc(F)cc5)CC4)cc3)c2cc1OC` [CABOZANTINIB] the pIC50 was < 4.70 and the IC50 was > 20 µM.
`C=C(C)[C@@H]1[C@@H]2OC(=O)[C@H]1[C@]1(O)C[C@H]3O[C@]34C(=O)O[C@H]2[C@]14C.CC(C)(O)[C@@H]1[C@@H]2OC(=O)[C@H]1[C@]1(O)C[C@H]3O[C@]34C(=O)O[C@H]2[C@]14C` was tested, and the pIC50 was < 4.70 and the IC50 was > 20 µM.
With `COc1cc(NS(=O)(=O)c2ccc(N)cc2)nc(OC)n1` [SULFADIMETHOXINE] the pIC50 was < 4.70 and the IC50 was > 20 µM.
In the case of `O=c1c(O)c(-c2ccc(O)cc2O)oc2cc(O)cc(O)c12` [MORIN], the pIC50 was < 4.70 and the IC50 was > 20 µM.
In the case of `CN(C)CCO[C@@H](c1ccc(Cl)cc1)c1ccccn1` [ROTOXAMINE], the pIC50 was < 4.70 and the IC50 was > 20 µM.
With `CCOC(=O)c1ccc(N)cc1` [BENZOCAINE] the pIC50 was < 4.70 and the IC50 was > 20 µM.
With `C[C@H]1C(=O)O[C@@H]2CCN3CC=C(COC(=O)[C@](C)(O)[C@]1(C)O)[C@H]23` [MONOCROTALINE] the pIC50 was < 4.70 and the IC50 was > 20 µM.
`C#Cc1cccc(Nc2ncnc3cc4c(cc23)OCCOCCOCCO4)c1` [ICOTINIB] was tested, and the pIC50 was < 4.70 and the IC50 was > 20 µM.
In the case of `CCN1C[C@@]2(COC)C3[C@@H](OC)[C@H]4[C@H]1C3([C@@H]1C[C@@]3(O)[C@H](OC(=O)c5ccccc5)[C@@H]1[C@]4(OC(C)=O)[C@@H](O)[C@@H]3OC)[C@H](OC)C[C@H]2O`, the pIC50 was < 4.70 and the IC50 was > 20 µM.
In the case of `CCC(O)C(CC(C)N(C)C)(c1ccccc1)c1ccccc1` (stereo not drawn) [DIMEPHEPTANOL], the pIC50 was < 4.70 and the IC50 was > 20 µM.
In the case of `O=C(NCCO[N+](=O)[O-])c1cccnc1` [NICORANDIL], the pIC50 was < 4.70 and the IC50 was > 20 µM.
With `Cc1nc(COc2ccc(C[C@H](NC(=O)O[C@H]3CO[C@H]4OCC[C@H]43)[C@H](O)CN(CC(C)C)S(=O)(=O)c3ccc4c(c3)OCO4)cc2)cs1` [BRECANAVIR] the pIC50 was < 4.70 and the IC50 was > 20 µM.
With `Nc1ncc2ncn(CC3(OCP(=O)(O)O)CC3)c2n1` [BESIFOVIR] the pIC50 was < 4.70 and the IC50 was > 20 µM.
`NCCNCCNCCN` [TRIENTINE] was tested, and the pIC50 was < 4.70 and the IC50 was > 20 µM.
`O=C(CCCN1CCC(C(=O)c2ccc(Cl)cc2)CC1)c1ccc(F)cc1` [CLOROPERONE] was tested, and the pIC50 was < 4.70 and the IC50 was > 20 µM.
For `CNC(=O)N1CC(Oc2cccc(C(F)(F)F)c2)C1` [FLUZINAMIDE], the pIC50 was < 4.70 and the IC50 was > 20 µM.
For `Cc1ccc([C@@]23Cn4cccc4C(=O)N2CCN3C(=O)c2conc2C)cn1`, the pIC50 was < 4.70 and the IC50 was > 20 µM.
With `NC(=O)c1cccnc1` [NIACINAMIDE] the pIC50 was < 4.70 and the IC50 was > 20 µM.
With `C[N+](C)(C)C[C@H](O)CC(=O)O` [DEXTROCARNITINE] the pIC50 was < 4.70 and the IC50 was > 20 µM.
With `O=C(O)c1cccnc1Nc1cccc(C(F)(F)F)c1` [NIFLUMIC ACID] the pIC50 was < 4.70 and the IC50 was > 20 µM.
`C=C[C@H]1CN2CC[C@H]1C[C@H]2[C@H](O)c1ccnc2ccc(OC)cc12` [QUININE] was tested, and the pIC50 was < 4.70 and the IC50 was > 20 µM.
With `CC(C)OC(=O)[C@H](C)N[P@@](=O)(OC[C@@]1(F)O[C@@H](n2ccc(=O)[nH]c2=O)[C@](C)(O)[C@@H]1O)Oc1ccccc1` the pIC50 was < 4.70 and the IC50 was > 20 µM.
In the case of `COc1cccc(-c2ccc(NC(=O)C3=C(C(=O)O)CCC3)c(F)c2)c1` [VIDOFLUDIMUS], the pIC50 was < 4.70 and the IC50 was > 20 µM.
`OC[C@H]1NC[C@@H](O)[C@@H](O)[C@@H]1O` [DEOXYMANNOJIRIMYCIN] was tested, and the pIC50 was < 4.70 and the IC50 was > 20 µM.
For `C=CCOc1ccc(CC(=O)O)cc1Cl` [ALCLOFENAC], the pIC50 was < 4.70 and the IC50 was > 20 µM.
For `CC(=O)N(CC(C)C(=O)O)c1c(I)cc(I)c(N)c1I` (stereo not drawn) [IOCETAMIC ACID], the pIC50 was < 4.70 and the IC50 was > 20 µM.
With `C#CCN[C@@H]1CCc2ccccc21` [RASAGILINE] the pIC50 was < 4.70 and the IC50 was > 20 µM.
In the case of `Cc1ccnc(N)c1`, the pIC50 was < 4.70 and the IC50 was > 20 µM.
`CNS(=O)(=O)CCc1ccc2[nH]cc(C3CCN(C)CC3)c2c1` was tested, and the pIC50 was < 4.70 and the IC50 was > 20 µM.
With `C=CC(=O)N1CC[C@H](n2nc(C#Cc3cc(OC)cc(OC)c3)c3c(N)ncnc32)C1` [FUTIBATINIB] the pIC50 was < 4.70 and the IC50 was > 20 µM.
With `C[C@H](CN1CCOCC1)C(C(=O)N1CCCC1)(c1ccccc1)c1ccccc1` the pIC50 was < 4.70 and the IC50 was > 20 µM.
With `COc1cnc(-n2cnc(C)n2)c2c1c(C(=O)C(=O)N1CCN(C(=O)c3ccccc3)CC1)cn2COP(=O)(O)O` [FOSTEMSAVIR] the pIC50 was < 4.70 and the IC50 was > 20 µM.
For `CC[N+](C)(CC)CCOC(=O)C(O)(c1cccs1)C1CCCC1` (stereo not drawn) [PENTHIENATE], the pIC50 was < 4.70 and the IC50 was > 20 µM.
For `CC(C)CC(NC(=O)CCN)C(=O)O` (racemic), the pIC50 was < 4.70 and the IC50 was > 20 µM.
With `C[C@]12CC[C@H](O)C[C@@H]1CC[C@@H]1C2CC[C@]2(C)[C@@H](C3=CC(=O)OC3)CC[C@]12O` (stereo partly drawn) the pIC50 was < 4.70 and the IC50 was > 20 µM.
In the case of `COC[C@H](O)Cn1c(=O)cnn(-c2ccc(Cl)c(C(=O)NCC3(O)CCCCCC3)c2)c1=O` [CE-224535], the pIC50 was < 4.70 and the IC50 was > 20 µM.
For `Cc1ccc(S(=O)(=O)NC(=O)NC2C3CCC(C)(C2O)C3(C)C)cc1` (stereo not drawn), the pIC50 was < 4.70 and the IC50 was > 20 µM.
`CN[C@@H](C)[C@H](O)c1ccccc1` [EPHEDRINE] was tested, and the pIC50 was < 4.70 and the IC50 was > 20 µM.
In the case of `CC1=C2[C@H]3OC(=O)[C@@H](C)[C@@H]3CC[C@@]2(C)C=CC1=O` [SANTONIN], the pIC50 was < 4.70 and the IC50 was > 20 µM.
With `CN(C)CCN(Cc1ccccc1)c1ccccn1` [TRIPELENNAMINE] the pIC50 was < 4.70 and the IC50 was > 20 µM.
`CNCCc1ccc(OC(=O)C(C)C)c(OC(=O)C(C)C)c1` [IBOPAMINE] was tested, and the pIC50 was < 4.70 and the IC50 was > 20 µM.
`O=C1Nc2ccccc2C1(c1ccc(O)cc1)c1ccc(O)cc1` [OXYPHENISATINE] was tested, and the pIC50 was < 4.70 and the IC50 was > 20 µM.
With `CC(=O)[C@@]1(O)CC[C@H]2[C@@H]3CCC4=CC(=O)C=C[C@]4(C)[C@H]3[C@@H](O)C[C@@]21C` [DEPRODONE] the pIC50 was < 4.70 and the IC50 was > 20 µM.
`CCn1cc(C(=O)O)c(=O)c2cc(F)c(N3CCNCC3)cc21` [NORFLOXACIN] was tested, and the pIC50 was < 4.70 and the IC50 was > 20 µM.
`NCCOC[C@H](N)C(=O)O` was tested, and the pIC50 was < 4.70 and the IC50 was > 20 µM.
With `CC(=O)OC(CC(=O)O)C[N+](C)(C)C` (stereo not drawn) the pIC50 was < 4.70 and the IC50 was > 20 µM.
`CCCCc1ncc(C=C(Cc2cccs2)C(=O)O)n1Cc1ccc(C(=O)O)cc1` was tested, and the pIC50 was < 4.70 and the IC50 was > 20 µM.
With `Cc1cc(CCCOc2c(C)cc(-c3noc(C(F)(F)F)n3)cc2C)on1` [PLECONARIL] the pIC50 was < 4.70 and the IC50 was > 20 µM.
With `Cc1c(CN(C)C(=O)/C=C/c2cnc3c(c2)CCC(=O)N3)oc2ccccc12` [AFN-1252] the pIC50 was < 4.70 and the IC50 was > 20 µM.
For `Cc1ccc(C)c(OCCCC(C)(C)C(=O)O)c1` [GEMFIBROZIL], the pIC50 was < 4.70 and the IC50 was > 20 µM.
`N[C@@H](Cc1ccccc1)C(=O)O` [PHENYLALANINE] was tested, and the pIC50 was < 4.70 and the IC50 was > 20 µM.
For `CC(C)(C)c1ccc(OC(=O)[C@H]2CC[C@H](CNC(=N)N)CC2)cc1` [BATEBULAST], the pIC50 was < 4.70 and the IC50 was > 20 µM.
With `Nc1cc(C(F)(F)F)c(-c2nc(N3CCOCC3)nc(N3CCOCC3)n2)cn1` [BIMIRALISIB] the pIC50 was < 4.70 and the IC50 was > 20 µM.
`CC(C(=O)O)c1ccc2c(c1)[nH]c1ccc(Cl)cc12` (stereo not drawn) [CARPROFEN] was tested, and the pIC50 was < 4.70 and the IC50 was > 20 µM.
With `Clc1ccccc1CN1CCc2sccc2C1` [TICLOPIDINE] the pIC50 was < 4.70 and the IC50 was > 20 µM.
`C/C=C/C[C@@H](C)C(=O)[C@H]1C(=O)N[C@@H](C(C)C)C(=O)N(C)CC(=O)N(C)[C@@H](CC(C)C)C(=O)N[C@@H](C(C)C)C(=O)N(C)[C@@H](CC(C)C)C(=O)N[C@@H](C)C(=O)N[C@H](C)C(=O)N(C)[C@@H](CC(C)C)C(=O)N(C)[C@@H](CC(C)C)C(=O)N(C)[C@@H](C(C)C)C(=O)N1C` [VALSPODAR] was tested, and the pIC50 was < 4.70 and the IC50 was > 20 µM.
In the case of `CCC/N=C1\S/C(=C\c2ccc(OC[C@H](O)CO)c(Cl)c2)C(=O)N1c1ccccc1C` [PONESIMOD], the pIC50 was < 4.70 and the IC50 was > 20 µM.
In the case of `C[C@@H]1CCC[C@@H](C)N1CCCC(O)(c1ccccc1)c1ccccn1` (stereo partly drawn), the pIC50 was < 4.70 and the IC50 was > 20 µM.
In the case of `CCCc1cc(C(N)=S)ccn1` [PROTIONAMIDE], the pIC50 was < 4.70 and the IC50 was > 20 µM.
With `NC[C@@H]1O[C@H](O[C@H]2[C@@H](O)[C@H](O[C@@H]3[C@@H](O)[C@H](N)C[C@H](N)[C@H]3O[C@H]3O[C@H](CO)[C@@H](O)[C@H](O)[C@H]3N)O[C@@H]2CO)[C@H](N)[C@@H](O)[C@@H]1O` [PAROMOMYCIN] the pIC50 was < 4.70 and the IC50 was > 20 µM.
In the case of `CCOc1ccc(NC(=O)C(C)O)cc1` (stereo not drawn), the pIC50 was < 4.70 and the IC50 was > 20 µM.
With `CCCCCCCCCCCC(=O)O` [DODECANOATE] the pIC50 was < 4.70 and the IC50 was > 20 µM.
In the case of `C=CCC1(C(C)C)C(=O)NC(=O)NC1=O` [APROBARBITAL], the pIC50 was < 4.70 and the IC50 was > 20 µM.
`C[C@@H]1CC[C@@]2(OC1)O[C@H]1C[C@H]3[C@@H]4CC=C5C[C@@H](O)CC[C@]5(C)[C@H]4CC[C@]3(C)[C@H]1[C@@H]2C` [DISOGENIN] was tested, and the pIC50 was < 4.70 and the IC50 was > 20 µM.
`O=C(Cc1cccc(OC(F)(F)F)c1)Nc1ccc(CCCCc2nnc(NC(=O)Cc3ccccn3)s2)nn1` was tested, and the pIC50 was < 4.70 and the IC50 was > 20 µM.
For `C#CCN/C(=N\C#N)NCCSCc1nc[nH]c1C` [ETINTIDINE], the pIC50 was < 4.70 and the IC50 was > 20 µM.
In the case of `CN[C@@H]1[C@H](O[C@H]2[C@H](O[C@H]3[C@H](O)[C@@H](O)[C@H](N=C(N)N)[C@@H](O)[C@@H]3N=C(N)N)O[C@@H](C)[C@]2(O)C=O)O[C@@H](CO)[C@H](O)[C@H]1O` [STREPTOMYCIN], the pIC50 was < 4.70 and the IC50 was > 20 µM.
`O=C(O)Cc1ccc(-c2ccccc2)cc1` [FELBINAC] was tested, and the pIC50 was < 4.70 and the IC50 was > 20 µM.

— ChEMBL document CHEMBL4651402, “Screening of ~5500 FDA-approved drugs and clinical candidates for anti-SARS-CoV-2 activity” (2021)
